Data reported in ChEMBL document CHEMBL1201862, “PubChem BioAssay data set” (2004).
Activity calls are given as the source filed them.

tested on: not listed separately; experiment: Luminescence Cell-Based Dose Response HTS to Identify Activators of Luciferase Translation or Activity in H4 […] Cells. [Related pubchem assays: 1829 (Project Summary), 1814 (Primary HTS)]; type: functional; settings: not given

SMILES	EC50
Cc1cc(CC(C)C)n(-c2nc3ccccc3c(=O)n2OCc2ccccc2)n1	13.5 µM (active)

biological target: T1, Protein skinhead-1 (Caenorhabditis elegans, UniProt P34707); experiment: not given; type: functional; settings: not given
T1 sequence (P34707 whole entry): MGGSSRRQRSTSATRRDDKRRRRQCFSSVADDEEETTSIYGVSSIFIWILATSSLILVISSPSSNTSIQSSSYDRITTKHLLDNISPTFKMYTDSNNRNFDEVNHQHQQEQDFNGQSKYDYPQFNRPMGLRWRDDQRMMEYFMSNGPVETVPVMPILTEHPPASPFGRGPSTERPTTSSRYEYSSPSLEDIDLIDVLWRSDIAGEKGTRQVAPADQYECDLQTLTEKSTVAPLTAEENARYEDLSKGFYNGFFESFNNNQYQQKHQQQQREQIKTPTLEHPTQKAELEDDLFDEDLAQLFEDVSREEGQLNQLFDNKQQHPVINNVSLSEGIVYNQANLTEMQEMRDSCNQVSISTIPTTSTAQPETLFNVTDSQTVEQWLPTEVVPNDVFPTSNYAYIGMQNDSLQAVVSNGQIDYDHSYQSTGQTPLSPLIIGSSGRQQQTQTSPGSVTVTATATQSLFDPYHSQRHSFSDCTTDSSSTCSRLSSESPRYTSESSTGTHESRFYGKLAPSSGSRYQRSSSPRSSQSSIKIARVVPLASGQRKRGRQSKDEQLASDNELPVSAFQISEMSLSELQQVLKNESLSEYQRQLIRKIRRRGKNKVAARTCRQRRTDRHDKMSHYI

SMILES	IC50
Cc1cc(CC(C)C)n(-c2nc3ccccc3c(=O)n2OCc2ccccc2)n1	> 100 µM (inactive)

biological target: T2, Zinc finger protein mex-5 (Caenorhabditis elegans, UniProt Q9XUB2); experiment: potency of MEX-5 RNA-binding blockers – biochemical, C. elegans, fluorescence polarization, dose response (AID 1960); settings: not given
T2 sequence (Q9XUB2 whole entry): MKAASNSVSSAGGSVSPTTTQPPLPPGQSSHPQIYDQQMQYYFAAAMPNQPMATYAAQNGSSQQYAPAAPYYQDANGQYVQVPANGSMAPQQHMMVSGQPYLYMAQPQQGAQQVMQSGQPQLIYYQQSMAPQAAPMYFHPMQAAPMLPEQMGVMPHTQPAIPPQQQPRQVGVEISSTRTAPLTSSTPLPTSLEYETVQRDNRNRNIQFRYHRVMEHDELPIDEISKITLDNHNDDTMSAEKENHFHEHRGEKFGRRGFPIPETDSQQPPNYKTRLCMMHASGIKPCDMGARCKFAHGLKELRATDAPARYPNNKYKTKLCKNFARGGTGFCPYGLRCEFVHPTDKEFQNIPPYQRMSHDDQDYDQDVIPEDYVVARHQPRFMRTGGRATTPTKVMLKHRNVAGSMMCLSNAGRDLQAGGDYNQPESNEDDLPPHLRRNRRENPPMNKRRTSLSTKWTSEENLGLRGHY

SMILES	EC50
COc1ccc(/C(O)=C/C=N/c2ccc([N+](=O)[O-])cc2C)c(OC)c1	> 300 µM (not active)
OC(C#Cc1ccccn1)c1cccs1 (stereo not given)	27.4 µM (inconclusive)
Cc1cc(CC(C)C)n(-c2nc3ccccc3c(=O)n2OCc2ccccc2)n1	> 300 µM (not active)
N#CC(C#N)=Cc1ccc(N2CCOCC2)cc1	> 300 µM (not active)
COC(=O)c1cc(-n2cccc2)ccc1N1CCOCC1	> 300 µM (not active)
O=C1N=C(N2CCOCC2)S/C1=C\c1ccc(-c2ccccc2Cl)o1	> 300 µM (not active)
CCN1C(=O)C(=Cc2ccc(N3CCOCC3)o2)C(=O)N(CC)C1=S	> 300 µM (inconclusive)

biological target: Cytochrome P450 3A4 (Homo sapiens, UniProt P08684); experiment: not given; settings: not given;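 also: CYP3A4 tested as one member of a cytochrome P450 panel screen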
Sequence (P08684 whole entry): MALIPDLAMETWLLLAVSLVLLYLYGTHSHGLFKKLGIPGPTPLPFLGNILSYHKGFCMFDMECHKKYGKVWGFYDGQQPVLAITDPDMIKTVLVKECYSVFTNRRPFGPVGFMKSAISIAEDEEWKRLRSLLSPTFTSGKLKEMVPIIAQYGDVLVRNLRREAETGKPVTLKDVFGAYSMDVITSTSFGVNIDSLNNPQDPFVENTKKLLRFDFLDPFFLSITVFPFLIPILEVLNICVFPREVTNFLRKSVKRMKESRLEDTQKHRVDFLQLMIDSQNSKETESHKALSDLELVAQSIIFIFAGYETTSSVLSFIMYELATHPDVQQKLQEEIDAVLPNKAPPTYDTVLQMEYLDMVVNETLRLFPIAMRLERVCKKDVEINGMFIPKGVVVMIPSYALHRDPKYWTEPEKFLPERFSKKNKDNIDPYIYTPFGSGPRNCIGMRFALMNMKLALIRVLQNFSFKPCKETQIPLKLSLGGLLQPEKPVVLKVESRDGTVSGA

SMILES	AC50
CCOc1ccc(N2C(=O)C3C4C=CC(CC4)C3C2=O)c([N+](=O)[O-])c1 (stereo not given)	20 µM (inconclusive)

biological target: T3, Cytochrome P450 1A2 (Homo sapiens, UniProt P05177); experiment: not given; settings: not given;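 also: PubChem cytochrome P450 panel assay, CYP1A2 panel member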
T3 sequence (P05177 whole entry): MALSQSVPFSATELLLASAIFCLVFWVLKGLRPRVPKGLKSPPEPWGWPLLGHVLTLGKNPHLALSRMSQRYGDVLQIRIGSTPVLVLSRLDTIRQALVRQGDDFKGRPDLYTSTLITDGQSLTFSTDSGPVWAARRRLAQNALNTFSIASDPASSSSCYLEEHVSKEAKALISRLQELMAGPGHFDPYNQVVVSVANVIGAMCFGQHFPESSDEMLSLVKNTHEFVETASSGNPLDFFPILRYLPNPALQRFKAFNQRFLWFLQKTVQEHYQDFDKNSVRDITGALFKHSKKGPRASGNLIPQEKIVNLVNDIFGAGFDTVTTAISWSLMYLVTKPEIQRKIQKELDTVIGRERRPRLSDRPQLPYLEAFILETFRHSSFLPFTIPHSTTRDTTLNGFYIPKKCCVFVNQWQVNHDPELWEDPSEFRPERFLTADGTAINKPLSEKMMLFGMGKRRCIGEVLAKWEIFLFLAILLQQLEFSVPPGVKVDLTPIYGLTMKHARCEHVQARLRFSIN

SMILES	AC50
Nc1cc(=O)nc(SCC(=O)Nc2cccc3ccccc23)n1CCc1ccccc1	17.8 µM (inconclusive)
CCOc1ccc(N2C(=O)C3C4C=CC(CC4)C3C2=O)c([N+](=O)[O-])c1 (stereo not given)	25.1 µM (inconclusive)

biological target: T4, RNA-binding protein pos-1 (Caenorhabditis elegans, UniProt G5EF15); experiment: disruptors of C. elegans POS-1 RNA interaction – biochemical, fluorescence polarization, dose response (AID 1964); settings: not given;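 also: purified POS-1 fused to maltose binding protein made in E. coli; potency of compounds blocking POS-1 binding to fluorescent RNA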
T4 sequence (G5EF15 whole entry): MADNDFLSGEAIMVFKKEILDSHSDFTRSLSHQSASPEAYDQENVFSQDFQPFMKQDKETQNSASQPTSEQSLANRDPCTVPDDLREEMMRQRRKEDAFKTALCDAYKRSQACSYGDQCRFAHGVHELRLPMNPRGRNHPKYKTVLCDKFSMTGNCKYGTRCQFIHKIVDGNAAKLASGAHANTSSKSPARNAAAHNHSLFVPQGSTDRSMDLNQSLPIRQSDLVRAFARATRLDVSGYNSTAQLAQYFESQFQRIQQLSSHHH

SMILES	EC50
COc1ccc(/C(O)=C/C=N/c2ccc([N+](=O)[O-])cc2C)c(OC)c1	> 300 µM (not active)
OC(C#Cc1ccccn1)c1cccs1 (stereo not given)	33.4 µM (active)
Cc1cc(CC(C)C)n(-c2nc3ccccc3c(=O)n2OCc2ccccc2)n1	> 300 µM (not active)
N#CC(C#N)=Cc1ccc(N2CCOCC2)cc1	> 300 µM (inconclusive)
COC(=O)c1cc(-n2cccc2)ccc1N1CCOCC1	> 300 µM (not active)
O=C1N=C(N2CCOCC2)S/C1=C\c1ccc(-c2ccccc2Cl)o1	> 300 µM (not active)
CCN1C(=O)C(=Cc2ccc(N3CCOCC3)o2)C(=O)N(CC)C1=S	> 300 µM (not active)

biological target: Large T antigen (Simian virus 40, UniProt P03070); experiment: not given; type: functional, Betapolyomavirus macacae; settings: not given;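 also: Confirmatory-stage PubChem screen for compounds that inhibit SV40 T antigen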
Sequence (P03070 whole entry): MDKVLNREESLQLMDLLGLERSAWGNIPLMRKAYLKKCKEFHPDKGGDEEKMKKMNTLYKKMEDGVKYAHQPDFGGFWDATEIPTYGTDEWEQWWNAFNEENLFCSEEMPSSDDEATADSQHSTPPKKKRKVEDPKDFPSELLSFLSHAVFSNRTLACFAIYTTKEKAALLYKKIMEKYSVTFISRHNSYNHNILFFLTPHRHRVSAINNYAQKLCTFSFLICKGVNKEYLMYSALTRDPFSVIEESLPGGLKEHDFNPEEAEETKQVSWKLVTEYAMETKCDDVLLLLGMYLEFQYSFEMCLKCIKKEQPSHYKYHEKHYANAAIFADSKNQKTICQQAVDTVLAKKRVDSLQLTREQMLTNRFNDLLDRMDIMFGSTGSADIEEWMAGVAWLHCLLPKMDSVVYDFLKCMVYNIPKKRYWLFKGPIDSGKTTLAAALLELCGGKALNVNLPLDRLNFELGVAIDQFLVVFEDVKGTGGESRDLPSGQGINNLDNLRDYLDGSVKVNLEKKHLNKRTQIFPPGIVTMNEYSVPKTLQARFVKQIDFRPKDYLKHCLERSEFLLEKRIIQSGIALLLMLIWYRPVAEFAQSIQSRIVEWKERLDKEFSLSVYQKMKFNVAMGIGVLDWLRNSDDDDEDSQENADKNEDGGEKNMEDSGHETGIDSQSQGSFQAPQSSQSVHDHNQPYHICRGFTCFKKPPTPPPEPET

SMILES	IC50
CN(C)c1ccc(NC(=O)CN2C3CCCC2CC(NC(=O)c2ccccc2)C3)cc1 (stereo not given)	7.46 µM (active)

tested on: not listed separately; experiment: Luminescence Cell-Based Dose Confirmation HTS to Identify Activators of 5'UTR Stem-Loop Driven Alpha-Synuclein mRNA Translation in H4 Neuroglioblastoma Cells. [Related pubchem assays: 1829 (Project Summary), 1814 (Primary HTS)]; type: functional; settings: not given

SMILES	EC50
Cc1cc(CC(C)C)n(-c2nc3ccccc3c(=O)n2OCc2ccccc2)n1	6.96 µM (active)

tested on: H4; experiment: Luminescence Cell-Based Dose Response HTS to Identify Activators of 5'UTR Stem-Loop Driven Prion Protein mRNA Translation in H4 Neuroglioblastoma Cells. [Related pubchem assays: 1829 (Project Summary), 1814 (Primary HTS)]; type: functional; settings: Homo sapiens

SMILES	EC50
Cc1cc(CC(C)C)n(-c2nc3ccccc3c(=O)n2OCc2ccccc2)n1	> 120 µM (not active)

tested on: H9c2; experiment: cells; type: functional, cell-based; settings: Rattus norvegicus, H9c2, Myocardium;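 also: confirmatory concentration-response retest of ultra-high-throughput screening hits for modulation of myocardial damage; cell death induced by hydrogen peroxide oxidative stress; compound pretreatment for 60 min then peroxide exposure for 2 h; potency is for protecting the cells against peroxide damage rather than for killing them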

SMILES	IC50
O=C(COc1ccccc1[N+](=O)[O-])Nc1ccc(N2CCN(C(=O)c3cccs3)CC2)cc1	> 79 µM (inactive)
Cn1c2ccccc2c(=O)c2ccc(NCc3ccc4c(c3)OCO4)cc21	15.2 µM (active)
Cc1ccc(Cn2c(CCNc3nc(-c4ccc(Cl)c([N+](=O)[O-])c4)cs3)nc3cc(C(=O)NCCCO)ccc32)cc1	47.7 µM (inactive)
CCN(Cc1ccccc1)C(=O)c1cc2c(=O)oc3ccc(C)cc3c2s1	> 79 µM (inactive)
Cc1ccc(N(CCC#N)C(=O)CSc2nc(O)c3ccccc3n2)cc1	35.4 µM (inactive)

biological target: T5, Short transient receptor potential channel 4 (Mus musculus, UniProt Q9QUQ5); experiment: block of DAMGO-driven TRPC4 calcium entry – cell-based, HEK293 TRPC4/mu-opioid, Fluo-4 calcium, dose response (AID 434942); type: functional; settings: not given;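 also: potency of inhibitors blocking the TRPC4 calcium response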
T5 sequence (Q9QUQ5 whole entry): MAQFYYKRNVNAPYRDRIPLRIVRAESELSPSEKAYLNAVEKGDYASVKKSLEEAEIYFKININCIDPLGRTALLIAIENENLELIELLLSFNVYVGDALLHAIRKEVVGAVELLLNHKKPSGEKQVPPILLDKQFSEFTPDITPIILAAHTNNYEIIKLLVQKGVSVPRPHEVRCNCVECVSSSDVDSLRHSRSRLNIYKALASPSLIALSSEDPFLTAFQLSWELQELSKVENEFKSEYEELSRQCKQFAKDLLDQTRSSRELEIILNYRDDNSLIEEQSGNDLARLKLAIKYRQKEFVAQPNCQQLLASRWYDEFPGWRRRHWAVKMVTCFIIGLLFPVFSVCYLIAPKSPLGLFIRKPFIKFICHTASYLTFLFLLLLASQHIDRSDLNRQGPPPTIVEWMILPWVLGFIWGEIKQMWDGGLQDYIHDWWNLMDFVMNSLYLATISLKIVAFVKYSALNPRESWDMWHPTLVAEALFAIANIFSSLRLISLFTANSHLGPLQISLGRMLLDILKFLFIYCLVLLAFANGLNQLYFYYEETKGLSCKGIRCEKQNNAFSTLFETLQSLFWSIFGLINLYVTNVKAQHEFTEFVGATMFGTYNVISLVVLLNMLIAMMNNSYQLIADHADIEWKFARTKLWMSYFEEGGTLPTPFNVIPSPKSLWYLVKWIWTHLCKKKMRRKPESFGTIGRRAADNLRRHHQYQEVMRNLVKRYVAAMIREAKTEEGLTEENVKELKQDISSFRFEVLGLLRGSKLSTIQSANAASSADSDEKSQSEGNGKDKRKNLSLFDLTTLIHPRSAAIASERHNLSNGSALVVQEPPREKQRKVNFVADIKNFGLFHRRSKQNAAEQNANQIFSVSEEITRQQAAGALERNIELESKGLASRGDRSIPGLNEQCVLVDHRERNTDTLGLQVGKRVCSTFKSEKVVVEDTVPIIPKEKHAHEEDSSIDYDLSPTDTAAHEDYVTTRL

SMILES	EC50
CN(C)c1ccc(NC(=O)CN2C3CCCC2CC(NC(=O)c2ccccc2)C3)cc1 (stereo not given)	3.35 µM (active)

biological target: Cytochrome P450 2C9 (Homo sapiens, UniProt P11712); experiment: not given; settings: not given
Sequence (P11712 whole entry): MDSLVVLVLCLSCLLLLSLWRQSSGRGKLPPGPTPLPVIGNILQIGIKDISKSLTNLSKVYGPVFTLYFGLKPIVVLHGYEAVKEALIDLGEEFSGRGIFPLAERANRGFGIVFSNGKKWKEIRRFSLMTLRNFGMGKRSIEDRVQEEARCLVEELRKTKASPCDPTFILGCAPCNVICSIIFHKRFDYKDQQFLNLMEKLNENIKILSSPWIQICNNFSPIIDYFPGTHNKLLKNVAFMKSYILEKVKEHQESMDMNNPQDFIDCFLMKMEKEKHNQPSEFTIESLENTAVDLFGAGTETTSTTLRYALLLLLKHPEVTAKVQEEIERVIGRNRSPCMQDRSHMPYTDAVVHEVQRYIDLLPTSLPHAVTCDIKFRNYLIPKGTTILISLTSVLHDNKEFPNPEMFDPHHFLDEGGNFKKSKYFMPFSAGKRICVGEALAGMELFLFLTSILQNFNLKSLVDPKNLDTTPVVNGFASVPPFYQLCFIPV

SMILES	AC50
Nc1cc(=O)nc(SCC(=O)Nc2cccc3ccccc23)n1CCc1ccccc1	inconclusive
CCOc1ccc(N2C(=O)C3C4C=CC(CC4)C3C2=O)c([N+](=O)[O-])c1 (stereo not given)	inconclusive
